Results on 21 compounds are retold here after patent US20240158393A1, “PYRIDONE COMPOUNDS AND METHODS OF USE” (Exelixis, Inc., priority 2021, published 2024).

Where only a bound is given, the exact number is not on record here.

A word on the IC50: it is the point on the concentration scale where inhibition reaches its midpoint.

For this assay, the target named is T1, Human Mer (Homo sapiens, UniProt Q12866).
T1 construct: Human Mer (residues R557-E882 with H628Q and R794A, 0.7 nM); purchased Eurofins Pharma Discovery Services UK Limited (KinaseProfiler service)
T1 sequence (Q12866 557-882 limits assumed): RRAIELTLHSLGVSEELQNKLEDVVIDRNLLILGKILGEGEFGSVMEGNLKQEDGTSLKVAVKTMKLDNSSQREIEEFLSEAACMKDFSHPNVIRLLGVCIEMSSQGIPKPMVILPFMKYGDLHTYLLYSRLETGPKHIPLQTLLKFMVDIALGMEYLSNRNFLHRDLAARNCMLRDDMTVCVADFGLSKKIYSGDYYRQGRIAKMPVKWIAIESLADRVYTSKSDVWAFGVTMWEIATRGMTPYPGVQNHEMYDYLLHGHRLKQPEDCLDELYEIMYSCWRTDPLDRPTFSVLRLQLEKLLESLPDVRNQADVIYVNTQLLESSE
Kind of assay: Human Mer kinase assay (33P radiometric / HTRF KinEase). The assay is classed as biochemical. The settings on record: protocols of Examples C-1 and/or C-2. A digest of the protocol:
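Two formats yield IC50 values. HTRF KinEase used MER residues 528-999 with ATP at Km (40 μM), 1 μM biotin-peptide, 60 min RT, […], 10 concentrations. 33P filter assay used 0.7 nM Mer R557-E882 (H628Q/R794A), 10 μM ATP, 250 μM peptide, 40 min RT, top 1 μM.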
Consider `COc1cc2nccc(Oc3ccc(NC(=O)c4c(C)n(C)c(C)c(N5CCCCC5)c4=O)cc3F)c2nc1OC` [Compound 90, N-[4-[(6,7-dimethoxy-1,5-naphthyridin-4-yl)oxy]-3-fluorophenyl]-1,2,6-trimethyl-4-oxo-5-piperidin-1-ylpyridine-3-carboxamide], for which the IC50 is ≤ 100 nM.

As to `COc1ccc2nccc(Oc3ccc(NC(=O)c4cnc(C)c(C5=CCCCC5)c4O)cc3F)c2n1` [Compound 1-6, 5-(Cyclohexen-1-yl)-N-[3-fluoro-4-[(6-methoxy-1,5-naphthyridin-4-yl)oxy]phenyl]-4-hydroxy-6-methylpyridine-3-carboxamide], the IC50 is ≤ 100 nM.

`COCCOc1cc2nccc(Oc3cc(F)c(NC(=O)c4c(C)nc(C)c(C(N)=O)c4O)cc3F)c2nc1OC` [Compound 86, 3-N-[2,5-Difluoro-4-[[6-methoxy-7-(2-methoxyethoxy)-1,5-naphthyridin-4-yl]oxy]phenyl]-4-hydroxy-2,6-dimethylpyridine-3,5-dicarboxamide]: the IC50 was > 300 nM.

As to `COCCOc1cc2nccc(Oc3ccc(NC(=O)c4cnc(C)c(C5=CCOCC5)c4O)cc3F)c2nc1OC` [Compound 35, 5-(3,6-Dihydro-2H-pyran-4-yl)-N-[3-fluoro-4-[[6-methoxy-7-(2-methoxyethoxy)-1,5-naphthyridin-4-yl]oxy]phenyl]-4-hydroxy-6-methylpyridine-3-carboxamide], the IC50 is ≤ 100 nM.

For `COc1cc2nccc(Oc3ccc(NC(=O)c4c5n(c(C)c(C6=CCCC6)c4=O)CCOC5)cc3)c2nc1OC` [Compound 99, 7-(Cyclopenten-1-yl)-N-[4-[(6,7-dimethoxy-1,5-naphthyridin-4-yl)oxy]phenyl]-6-methyl-8-oxo-3,4-dihydro-1H-pyrido[2,1-c][1,4]oxazine-9-carboxamide], the IC50 was ≤ 100 nM.

In the case of `COc1cc2nccc(Oc3ccc(NC(=O)c4cnc(C)c(/C=C/C(C)(C)C)c4O)cc3F)c2nc1OC` [Compound 27, N-[4-[(6,7-Dimethoxy-1,5-naphthyridin-4-yl)oxy]-3-fluorophenyl]-5-[(E)-3,3-dimethylbut-1-enyl]-4-hydroxy-6-methylpyridine-3-carboxamide], the IC50 was ≤ 100 nM.

For the compound `COc1cc2nccc(Oc3ccc(NC(=O)c4c(C)n(C)c(C)c(C5CC5)c4=O)cc3)c2nc1OC` [Compound 48, 5-Cyclopropyl-N-[4-[(6,7-dimethoxy-1,5-naphthyridin-4-yl)oxy]phenyl]-1,2,6-trimethyl-4-oxopyridine-3-carboxamide], the IC50 was > 300 nM.

`COc1cc2nccc(Oc3ccc(NC(=O)c4c(C)nc(C)c(C(=O)N(C)C)c4O)cc3F)c2nc1OC` [Compound 93, 3-N-[4-[(6,7-Dimethoxy-1,5-naphthyridin-4-yl)oxy]-3-fluorophenyl]-4-hydroxy-5-N,5-N,2,6-tetramethylpyridine-3,5-dicarboxamide]: the IC50 was > 300 nM.

Consider `COc1cc2nccc(Oc3ccc(NC(=O)c4c5n(c(C)c(C6=CCCCC6)c4=O)CCOC5)cc3F)c2nc1OC` [Compound 80, 7-(Cyclohexen-1-yl)-N-[4-[(6,7-dimethoxy-1,5-naphthyridin-4-yl)oxy]-3-fluorophenyl]-6-methyl-8-oxo-3,4-dihydro-1H-pyrido[2,1-c][1,4]oxazine-9-carboxamide], for which the concentration for half-maximal inhibition (IC50) was ≤ 100 nM.

With `COc1cc2nccc(Oc3ccc(NC(=O)c4cn(CCF)c(C)c(C5=CCCCC5)c4=O)cc3F)c2nc1OC` [Compound 8, 5-(Cyclohexen-1-yl)-N-[4-[(6,7-dimethoxy-1,5-naphthyridin-4-yl)oxy]-3-fluorophenyl]-1-(2-fluoroethyl)-6-methyl-4-oxopyridine-3-carboxamide], the IC50 is ≤ 100 nM.

For the compound `COc1cc2nccc(Oc3ccc(NC(=O)c4c(C)n(C)c(C)c(C5CC5)c4=O)cc3F)c2nc1OC` [Compound 46, 5-Cyclopropyl-N-[4-[(6,7-dimethoxy-1,5-naphthyridin-4-yl)oxy]-3-fluorophenyl]-1,2,6-trimethyl-4-oxopyridine-3-carboxamide], the IC50 was ≤ 100 nM.

`COc1ccc2nccc(Oc3ccc(NC(=O)c4cnc(C)c(C5=CCCC5)c4O)cc3F)c2n1` [Compound 1-7, 5-(Cyclopenten-1-yl)-N-[3-fluoro-4-[(6-methoxy-1,5-naphthyridin-4-yl)oxy]phenyl]-4-hydroxy-6-methylpyridine-3-carboxamide]: the IC50 was ≤ 100 nM.

Consider `COc1cc2nccc(Oc3ccc(NC(=O)c4cnc(C)c(/C=C/C5CCCC5)c4O)cc3F)c2nc1OC` [Compound 25, 5-[(E)-2-Cyclopentylethenyl]-N-[4-[(6,7-dimethoxy-1,5-naphthyridin-4-yl)oxy]-3-fluorophenyl]-4-hydroxy-6-methylpyridine-3-carboxamide], for which the IC50 was ≤ 100 nM.

`COc1cc2nccc(Oc3ccc(NC(=O)c4c(C)n(C)c(C)c(/C=C/C(C)(C)C)c4=O)cc3F)c2nc1OC` [Compound 49, N-[4-[(6,7-Dimethoxy-1,5-naphthyridin-4-yl)oxy]-3-fluorophenyl]-5-[(E)-3,3-dimethylbut-1-enyl]-1,2,6-trimethyl-4-oxopyridine-3-carboxamide]: the IC50 is ≤ 100 nM.

Turning to `COc1cc2nccc(Oc3ccc(NC(=O)c4c(C)ccn(C(C)C)c4=O)cc3F)c2nc1OC` [Compound 38, N-[4-[(6,7-Dimethoxy-1,5-naphthyridin-4-yl)oxy]-3-fluorophenyl]-4-methyl-2-oxo-1-propan-2-ylpyridine-3-carboxamide], the 50% inhibitory concentration (IC50) is ≤ 100 nM.

For `COc1cc2nccc(Oc3ccc(NC(=O)c4c(C)nc(C)c(C(=O)NC(C)C)c4O)cc3F)c2nc1OC` [Compound 94, 3-N-[4-[(6,7-Dimethoxy-1,5-naphthyridin-4-yl)oxy]-3-fluorophenyl]-4-hydroxy-2,6-dimethyl-5-N-propan-2-ylpyridine-3,5-dicarboxamide], the IC50 is ≤ 100 nM.

`COc1cc2nccc(Oc3cc(F)c(NC(=O)c4c(C)n(C)c(C)c(C5CC5)c4=O)cc3F)c2nc1OC` [Compound 47, 5-Cyclopropyl-N-[4-[(6,7-dimethoxy-1,5-naphthyridin-4-yl)oxy]-2,5-difluorophenyl]-1,2,6-trimethyl-4-oxopyridine-3-carboxamide]: the IC50 was ≤ 100 nM.

As to `COc1cc2nccc(Oc3ccc(NC(=O)c4cnc(C)c(/C=C/C5CC5)c4O)cc3F)c2nc1OC` [Compound 26, 5-[(E)-2-Cyclopropylethenyl]-N-[4-[(6,7-dimethoxy-1,5-naphthyridin-4-yl)oxy]-3-fluorophenyl]-4-hydroxy-6-methylpyridine-3-carboxamide], the IC50 is ≤ 100 nM.

Turning to `COc1cc2nccc(Oc3ccc(NC(=O)c4c(C)c(Br)c(C)n(C5CCCC5)c4=O)cc3F)c2nc1OC` [Compound 22, 5-Bromo-1-cyclopentyl-N-[4-[(6,7-dimethoxy-1,5-naphthyridin-4-yl)oxy]-3-fluorophenyl]-4,6-dimethyl-2-oxopyridine-3-carboxamide], the IC50 is ≤ 100 nM.

Consider `COc1cc2nccc(Oc3ccc(NC(=O)c4cnc(C)c(/C=C/CC(C)C)c4O)cc3F)c2cc1OC` [Compound 29, N-[4-(6,7-Dimethoxyquinolin-4-yl)oxy-3-fluorophenyl]-4-hydroxy-6-methyl-5-[(E)-4-methylpent-1-enyl]pyridine-3-carboxamide], for which the IC50 is ≤ 100 nM.

`COc1cc2nccc(Oc3ccc(NC(=O)c4c(C)ccn(C(C)C)c4=O)cc3)c2nc1OC` [Compound 39, N-[4-[(6,7-Dimethoxy-1,5-naphthyridin-4-yl)oxy]phenyl]-4-methyl-2-oxo-1-propan-2-ylpyridine-3-carboxamide]: the IC50 is ≤ 100 nM.
